Experimental data taken from publication PMC7562955 (Nature Communications, 2020).

Legend:
[1] = target: T1, TLR7 extracellular domain (Macaca mulatta, UniProt B3Y653, N167Q/N389Q/N488Q/N799Q); test: ITC titration to TLR7 recombinant protein; type: binding, Monkey (Macaca mulatta); settings: pH 4.7; read-out: Dissociation constant KD
T1 construct: Monkey (Macaca mulatta) TLR7 extracellular domain expression construct; protein A tag (C, cleaved yes); made in house; host or cells: Drosophila S2 cells
T1 sequence (B3Y653 with tags, fused parts or gaps N167Q/N389Q): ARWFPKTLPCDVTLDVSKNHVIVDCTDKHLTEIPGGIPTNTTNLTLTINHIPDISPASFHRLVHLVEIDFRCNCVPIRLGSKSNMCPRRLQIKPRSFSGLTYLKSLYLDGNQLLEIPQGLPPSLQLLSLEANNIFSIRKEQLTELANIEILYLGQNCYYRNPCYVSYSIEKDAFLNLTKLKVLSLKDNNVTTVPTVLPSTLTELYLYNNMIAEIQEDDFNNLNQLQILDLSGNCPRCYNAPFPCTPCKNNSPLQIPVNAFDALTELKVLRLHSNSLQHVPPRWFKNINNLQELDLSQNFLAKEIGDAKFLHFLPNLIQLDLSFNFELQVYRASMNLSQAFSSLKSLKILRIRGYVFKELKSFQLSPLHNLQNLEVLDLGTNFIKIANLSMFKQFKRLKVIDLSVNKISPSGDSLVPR
T1 sequence (B3Y653 with tags, fused parts or gaps N488Q/N799Q): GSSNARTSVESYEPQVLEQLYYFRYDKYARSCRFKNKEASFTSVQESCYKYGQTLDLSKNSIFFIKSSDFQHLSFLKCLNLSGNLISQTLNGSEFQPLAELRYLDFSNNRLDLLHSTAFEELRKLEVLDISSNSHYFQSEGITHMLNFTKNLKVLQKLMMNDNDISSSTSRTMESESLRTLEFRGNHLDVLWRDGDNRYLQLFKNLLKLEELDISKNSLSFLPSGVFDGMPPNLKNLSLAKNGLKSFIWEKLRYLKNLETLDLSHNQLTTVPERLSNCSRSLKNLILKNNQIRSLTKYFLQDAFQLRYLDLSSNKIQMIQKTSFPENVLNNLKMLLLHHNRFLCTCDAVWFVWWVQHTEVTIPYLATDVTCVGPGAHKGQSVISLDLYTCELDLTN
Description: (§1) The recombinant TLR7 proteins expressed in Drosophila S2 cells (Thermo Fisher Scientific) using Monkey (Macaca mulatta) TLR7 extracellular domain expression construct with N167Q, N399Q, N488Q and N799Q mutations and cleavable Z-loop and C-terminal protein A tag were prepared and were stored in a buffer containing 10 mM Tris-HCl pH 7.5 and 150 mM NaCl at concentrations of 10–15 mg ml^−1. Briefly, the purification steps included IgG affinity purification, the Z-loop and the protein A tag cleavage, and gel-filtration chromatography. Glycan-trimmed TLR7 proteins, expressed in the presence of 1.5 mg l^−1 kifunensine (Glycosyn) and treated by Endo Hf (New England Biolabs) were used for crystallization. Glycan-untrimmed proteins were used in ITC analysis, crosslinking assay, negative-staining EM and cryo-EM (200 kV microscopes) analyses. Glycan-trimmed TLR7 proteins with partially-uncleaved protein A tag were used for cryo-EM analysis using Tatan Krios (Supplementary Fig. 11).
ITC experiments (Fig. 2a) were conducted at 298 K in a final buffer condition of ~30 mM citrate-NaOH pH 4.7 or pH 5.7 (Hampton Research), 150 mM NaCl by using a MicroCal iTC200 (Malvern Panalytical). […]

TLR7 = test: Glutaraldehyde crosslinking assay of ligand-induced TLR7 dimerization; type: biochemical, Monkey (Macaca mulatta); settings: for ligand-induced TLR7 dimerization: neutral or acidic pH
Description: as §1
For glutaraldehyde crosslinking assay (Fig. 2b), proteins were buffer exchanged into a buffer containing 10 mM HEPES-NaOH, pH 8.0, 150 mM NaCl and were concentrated to ~13 mg/ml using Amicon Ultra devices (Merck). Protein concentrations were adjusted to 25 µM using buffers containing 10 mM HEPES-NaOH, pH 7.0, 150 mM NaCl (for neutral condition) or 50 mM citrate-NaOH pH 5.0, 150 mM NaCl (for acidic condition). Cpd-3, Cpd-6 or Cpd-7 were added to final concentrations of 100 or 1000 µM. The reactions were started by adding glutaraldehyde (Wako) to a final concentration of 5 mM (for neutral condition) or 20 mM (for acidic condition), incubated at ambient temperature for 25 min and quenched by adding Tris-HCl pH 7.5 to a final concentration of 100 mM. Crosslinked samples were analyzed by non-reducing SDS-PAGE. Quantitative analysis of the SDS-PAGE gel image was performed with Image-J.

[2] = pH 5.0, ligand + (100 or 1000 µM used)
[3] = pH 5.0, ligand ++ (100 or 1000 µM used)
[4] = pH 7.0, ligand + (100 or 1000 µM used)
[5] = pH 7.0, ligand ++ (100 or 1000 µM used)

Structure (SMILES)	Kd [1] [µM]	ligand-induced TLR7 dimerization (TLR7)	Band intensity Dimer (TLR7; [2])	Band intensity Monomer (TLR7; [2])	Band intensity Dimer (TLR7; [3])	Band intensity Monomer (TLR7; [3])	Band intensity Dimer (TLR7; [4])	Band intensity Monomer (TLR7; [4])	Band intensity Dimer (TLR7; [5])	Band intensity Monomer (TLR7; [5])
CCOc1nc(C)c2nc(-c3cncc(F)c3)n(Cc3ccc(CN4C[C@@H]5C[C@H]4CN5C)cc3)c2n1 [Cpd-7]	7.4	increased only in acidic conditions	8301.55	16518.6	8600.5	15510.2	9334.79	16326.2	12602.5	14640.4
CCOc1nc(N)c2nc(-c3cncc(F)c3)n(Cc3ccc(CN4C[C@@H]5C[C@H]4CN5C)cc3)c2n1 [Cpd-6]	10	increased only in acidic conditions	8170.97	16240	8032.26	12976	10536.9	14418	14285.1	11832.4
